Here are results for two molecules from article PMC2649372 (Biochemistry, 2008).

By EC50 is commonly meant the midpoint of the concentration-response curve. The low end stands for a more potent agent, the high end for a less potent agent. As a reminder, the pEC50 is the EC50 on a negative log10 scale, so that one unit is a factor of ten. High values mean a small EC50, low ones a large EC50.

Common to all, as to test: Agonist-induced currents, voltage clamp electrophysiology in Xenopus oocytes
Common to all, as to assay type: cell-based

Experiment [1] concerns the target T1, N128D mutant 5-HT3 receptor (mouse 5-HT3A subunit) (Mus musculus, UniProt P23979, N128D).
T1 sequence (P23979 24-483 isoform P23979-2 N128D limits assumed): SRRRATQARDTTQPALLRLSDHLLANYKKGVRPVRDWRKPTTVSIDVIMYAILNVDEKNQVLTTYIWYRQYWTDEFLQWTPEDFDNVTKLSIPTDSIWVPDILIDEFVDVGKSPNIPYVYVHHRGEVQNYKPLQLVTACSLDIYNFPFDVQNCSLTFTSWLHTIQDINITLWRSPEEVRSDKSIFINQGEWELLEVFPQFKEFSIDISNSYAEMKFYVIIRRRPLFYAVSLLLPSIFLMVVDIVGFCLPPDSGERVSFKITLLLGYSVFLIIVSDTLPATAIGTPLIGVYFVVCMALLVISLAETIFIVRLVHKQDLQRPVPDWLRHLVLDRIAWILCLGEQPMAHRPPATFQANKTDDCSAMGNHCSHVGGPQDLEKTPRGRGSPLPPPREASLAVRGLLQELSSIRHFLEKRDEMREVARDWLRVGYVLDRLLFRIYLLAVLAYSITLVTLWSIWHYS
The settings on record: N128D.

For experiment [2], the target named is T2, N128E mutant 5-HT3 receptor (mouse 5-HT3A subunit) (Mus musculus, UniProt P23979, N128E).
T2 sequence (P23979 24-483 isoform P23979-2 N128E limits assumed): T1 sequence (P23979 24-483 isoform P23979-2 N128D limits assumed) with D105E
The conditions noted are these: N128E.

The target of experiment [3] is T3, N128Q mutant 5-HT3 receptor (mouse 5-HT3A subunit) (Mus musculus, UniProt P23979, N128Q).
T3 sequence (P23979 24-483 isoform P23979-2 N128Q limits assumed): T1 sequence (P23979 24-483 isoform P23979-2 N128D limits assumed) with D105Q
The settings on record: N128Q.

For experiment [4], the target named is T4, N128V mutant 5-HT3 receptor (mouse 5-HT3A subunit) (Mus musculus, UniProt P23979, N128V).
T4 sequence (P23979 24-483 isoform P23979-2 N128V limits assumed): T1 sequence (P23979 24-483 isoform P23979-2 N128D limits assumed) with D105V

The target of experiment [5] is T5, E129N mutant 5-HT3 receptor (mouse 5-HT3A subunit) (Mus musculus, UniProt P23979, E129N).
T5 sequence (P23979 24-483 isoform P23979-2 E129N limits assumed): T1 sequence (P23979 24-483 isoform P23979-2 N128D limits assumed) with D105N, E106N
The conditions noted are these: E129N.

Where a chain is given by its changes, count along the chain named. Marks after values point to notes of the source that are not given here. A value given as a limit tells only on which side of the number the result lay.

Turning to `NCCc1c[nH]c2ccc(O)cc12` [5-HT, 5-hydroxytryptamine], the “nH (Hill coefficient)” value in experiment [1] was 1.63 ± 0.08 ^b; in experiment [2], 1.48 ± 0.18 ^b; in experiment [3], 2.11 ± 0.29; in experiment [4], 3.18 ± 0.60. Also, the “size of agonist response (current)” value in experiment [5] is recorded as greater than 5 µA.
For `N=C(N)NC(=N)Nc1cccc(Cl)c1` [mCPBG, m-chlorophenylbiguanide], the EC50 in experiment [1] was found to be 270 nM; in experiment [2], 280 nM; in experiment [3], 3000 nM; in experiment [4] it was 74 nM; in experiment [5] it was 620 nM. Besides, the “nH (Hill coefficient)” value is on record as 1.54 ± 0.15 in experiment [1]; 1.81 ± 0.019 in experiment [2]; 2.41 ± 0.16 in experiment [3]; 5.07 ± 0.85 ^b in experiment [4]; 1.25 ± 0.19 in experiment [5]. For the same molecule, the pEC50 in experiment [1] (SR = small (<100 nA) responses) is listed as 6.56 ± 0.03; in experiment [2], 6.56 ± 0.03; in experiment [3], 5.52 ± 0.18 ^b; in experiment [4], 7.13 ± 0.02 ^b; in experiment [5] (SR = small (<100 nA) responses) it was 6.21 ± 0.05. In addition, the “size of agonist response (current)” value in experiment [5] was greater than 5 µA.
